Assay results: patent US10214508B2, “Nitrogen-containing heterocyclic compound” (Takeda Pharmaceutical Company Limited, priority 2014, dated 2019)
Structures can show the parent of a compound that is named as a salt.

Target: T1, human M1 receptor (hCHRM1) (Homo sapiens, UniProt P11229)
T1 construct: expressed in transfected cells
T1 sequence (P11229 1-460): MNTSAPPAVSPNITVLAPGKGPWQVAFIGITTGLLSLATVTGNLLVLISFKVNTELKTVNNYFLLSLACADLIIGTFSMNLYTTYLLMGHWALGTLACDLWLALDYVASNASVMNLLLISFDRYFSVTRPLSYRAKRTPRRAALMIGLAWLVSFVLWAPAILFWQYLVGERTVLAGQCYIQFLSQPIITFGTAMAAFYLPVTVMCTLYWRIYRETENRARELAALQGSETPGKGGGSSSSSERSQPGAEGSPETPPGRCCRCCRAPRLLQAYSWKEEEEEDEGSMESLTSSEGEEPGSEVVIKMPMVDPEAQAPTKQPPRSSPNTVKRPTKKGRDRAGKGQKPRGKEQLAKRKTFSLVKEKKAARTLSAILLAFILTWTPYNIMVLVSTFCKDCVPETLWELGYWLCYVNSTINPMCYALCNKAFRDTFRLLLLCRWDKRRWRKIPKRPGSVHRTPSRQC
Test: Measurement of M1 receptor positive allosteric modulator (M1PAM) activity, calcium fluorescence (FLIPRtetra)
Format: cell-based
Conditions: 10 μM test compound with acetylcholine at EC20 (final 0.6-0.8 nM); 100% = acetylcholine 1 μM, 0% = DMSO; CHO-K1 cells expressing hCHRM1
Method: Measurement of M1 Receptor Positive Allosteric Modulator (M1PAM) Activity
The activity of a test compound in the presence of acetylcholine at EC20 concentration (final concentration 0.6-0.8 nM), which affords an action corresponding to about 20% of the maximum activity, was measured as PAM activity. The method is as follows. CHO-K1 cells stably expressing a human M1 receptor (hCHRM1) were plated on a 384-well black clear bottom plate (BD Falcon) at 5,000 cells/well, and cultured in an incubator at 37° C., 5% CO2 for 1 day. The medium in the cell plate was removed, and assay buffer A containing calcium indicator (Recording medium (DOJINDO LABORATORIES), 0.1% BSA (Wako Pure Chemical Industries, Ltd.), 2.5 μg/mL Fluo-4 AM (DOJINDO LABORATORIES), 0.08% Pluronic F127 (DOJINDO LABORATORIES), 1.25 mM probenecid (DOJINDO LABORATORIES)) was added at 30 μL/well. The cells were left standing in the incubator at 37° C., 5% CO2 for 30 min, and further left standing at room temperature for 30 min. A test compound prepared by diluting with assay buffer B (HBSS (Invitrogen), 20 mM HEPES (Invitrogen), 0.1% BSA) containing 2.4-3.2 nM acetylcholine was added at 10 μL/well, and the fluorescence was measured by FLIPRtetra (Molecular Devices) for 1 min every for 1 second. With the definition that the amount of change in the fluorescence on addition of acetylcholine (final concentration 1 μM) is 100% and that on addition of DMSO instead of a test compound is 0%, the activity (%) of the test compound was calculated, and the inflection point in the concentration-dependent curve of the test compound was calculated as IP values.

SMILES | activity (%) at 10 μM [%]
COc1ccc(Cc2cc(C(=O)N[C@H]3COCC[C@@H]3O)nc(C)c2Cl)cn1 [Example 106, 1,5-anhydro-2-(((5-chloro-4-((6-methoxypyridin-3-yl)methyl)-6-methylpyridin-2-yl)carbonyl)amino)-2,4-dideoxy-L-threo-pentitol] | 104
COc1ccc(Cc2cc(C(=O)N[C@H]3CCCC[C@@H]3O)nc(C)c2Cl)cn1 [Example 105, 5-chloro-N-((1S,2S)-2-hydroxycyclohexyl)-4-((6-methoxypyridin-3-yl)methyl)-6-methylpyridine-2-carboxamide] | 100
COC1CCCCC1NC(=O)c1cc(Cc2ccc(-c3ccn(C)n3)cc2)c(C)cn1 (centres unmarked) [Example 18, N-(2-methoxycyclohexyl)-5-methyl-4-(4-(1-methyl-1H-pyrazol-3-yl)benzyl)pyridine-2-carboxamide] | 105
O=C(N[C@H]1CCC[C@@H]1O)c1cc(Cc2ccc(-n3cccn3)cc2F)c(Cl)cn1 [Example 53, 5-chloro-4-(2-fluoro-4-(1H-pyrazol-1-yl)benzyl)-N-((1S,2S)-2-hydroxycyclopentyl)pyridine-2-carboxamide] | 93
Cc1cnc(C(=O)N[C@H]2CCCC[C@@H]2O)cc1Cc1ccc(-c2ccn(C)n2)cc1F [Example 10, 4-(2-fluoro-4-(1-methyl-1H-pyrazol-3-yl)benzyl)-N-((1S,2S)-2-hydroxycyclohexyl)-5-methylpyridine-2-carboxamide] | 89
Cc1cnc(C(=O)NC2CCC2)cc1Cc1ccc(-c2ccn(C)n2)cc1 [Example 29, N-cyclobutyl-5-methyl-4-(4-(1-methyl-1H-pyrazol-3-yl)benzyl)pyridine-2-carboxamide] | 93
Cc1ccc(Cc2cc(C(=O)N[C@H]3CCCC[C@@H]3O)nc(C)c2Cl)cn1 [Example 110, 5-chloro-N-((1S,2S)-2-hydroxycyclohexyl)-6-methyl-4-((6-methylpyridin-3-yl)methyl)pyridine-2-carboxamide] | 95
Cc1nc(C(=O)N[C@H]2CCCC[C@@H]2O)cc(Cc2ccc(-c3cnn(C)c3)cc2)c1C [Example 79, N-((1S,2S)-2-hydroxycyclohexyl)-5,6-dimethyl-4-(4-(1-methyl-1H-pyrazol-4-yl)benzyl)pyridine-2-carboxamide] | 106
COc1ccc(Cc2cc(C(=O)N[C@H]3COCC[C@@H]3O)nc(C)c2Cl)cc1 [Example 102, 1,5-anhydro-2-(((5-chloro-4-(4-methoxybenzyl)-6-methylpyridin-2-yl)carbonyl)amino)-2,4-dideoxy-L-threo-pentitol] | 104
Cc1nc(C(=O)N[C@H]2CCCC[C@@H]2O)cc(Cc2ccc(Cl)nc2)c1Cl [Example 103, 5-chloro-4-((6-chloropyridin-3-yl)methyl)-N-((1S,2S)-2-hydroxycyclohexyl)-6-methylpyridine-2-carboxamide] | 109
Cn1ccc(-c2ccc(Cc3cc(C(=O)N[C@H]4CCCC[C@@H]4O)ncc3Cl)cc2)n1 [Example 52, 5-chloro-N-((1S,2S)-2-hydroxycyclohexyl)-4-(4-(1-methyl-1H-pyrazol-3-yl)benzyl)pyridine-2-carboxamide] | 100
COc1ccc(Cc2cc(C)nc(C(=O)N[C@H]3CCCC[C@@H]3O)c2)cc1 [Example 71, N-((1S,2S)-2-hydroxycyclohexyl)-4-(4-methoxybenzyl)-6-methylpyridine-2-carboxamide] | 69
Cc1nc(C(=O)N[C@H]2CCCC[C@@H]2O)cc(Cc2ccc(-c3ccn(C)n3)nc2)c1Cl [Example 107, 5-chloro-N-((1S,2S)-2-hydroxycyclohexyl)-6-methyl-4-((6-(1-methyl-1H-pyrazol-3-yl)pyridin-3-yl)methyl)pyridine-2-carboxamide] | 101
Cc1cnc(C(=O)N[C@H]2COCC[C@@H]2O)cc1Cc1ccc(-n2cccn2)cc1 [Example 49, 1,5-anhydro-2,4-dideoxy-2-(((5-methyl-4-(4-(1H-pyrazol-1-yl)benzyl)pyridin-2-yl)carbonyl)amino)-L-threo-pentitol] | 99
Cc1nn(C)cc1-c1ccc(Cc2cc(C(=O)N[C@H]3CCCC[C@@H]3O)nc(C)c2Cl)cn1 [Example 109, 5-chloro-4-((6-(1,3-dimethyl-1H-pyrazol-4-yl)pyridin-3-yl)methyl)-N-((1S,2S)-2-hydroxycyclohexyl)-6-methylpyridine-2-carboxamide] | 95
O=C(N[C@H]1CCC[C@@H]1O)c1cc(Cc2ccc(-n3cccn3)cc2)c(C(F)F)cn1 [Example 37, 5-(difluoromethyl)-N-((1S,2S)-2-hydroxycyclopentyl)-4-(4-(1H-pyrazol-1-yl)benzyl)pyridine-2-carboxamide] | 106
Cc1cnc(C(=O)N[C@H]2COCC[C@@H]2O)cc1Cc1ccc(-c2ccn(C)n2)cc1 [Example 2, 1,5-anhydro-2,4-dideoxy-2-(((5-methyl-4-(4-(1-methyl-1H-pyrazol-3-yl)benzyl)pyridin-2-yl)carbonyl)amino)-L-threo-pentitol] | 100
Cc1nc(C(=O)N[C@H]2CCCC[C@@H]2O)cc(Cc2ccc(-c3ccn(C)n3)cc2)c1C [Example 81, N-((1S,2S)-2-hydroxycyclohexyl)-5,6-dimethyl-4-(4-(1-methyl-1H-pyrazol-3-yl)benzyl)pyridine-2-carboxamide] | 97

Next, values leading:

activity (%) at 10 μM [%] | SMILES
87 | Cc1cc(Cc2ccc(-n3cccn3)cc2)cc(C(=O)N[C@H]2CCCC[C@@H]2O)n1 [Example 70, N-((1S,2S)-2-hydroxycyclohexyl)-6-methyl-4-(4-(1H-pyrazol-1-yl)benzyl)pyridine-2-carboxamide]
101 | O=C(N[C@H]1CCCC[C@@H]1O)c1cc(Cc2ccc(-n3cccn3)cc2)c(OC(F)F)cn1 [Example 94, 5-(difluoromethoxy)-N-((1S,2S)-2-hydroxycyclohexyl)-4-(4-(1H-pyrazol-1-yl)benzyl)pyridine-2-carboxamide]
98 | Cc1cnc(C(=O)N[C@H]2CCCC[C@@H]2O)cc1Cc1ccc(-n2cccn2)cc1 (relative stereo) [Example 4, N-(trans-2-hydroxycyclohexyl)-5-methyl-4-(4-(1H-pyrazol-1-yl)benzyl)pyridine-2-carboxamide]
100 | Cc1cnc(C(=O)N[C@H]2CCC[C@@H]2O)cc1Cc1ccc(-c2cn(C)nc2C)cc1 [Example 14, 4-(4-(1,3-dimethyl-1H-pyrazol-4-yl)benzyl)-N-((1S,2S)-2-hydroxycyclopentyl)-5-methylpyridine-2-carboxamide Dihydrochloride]
102 | Cc1nc(C(=O)N[C@H]2CCCC[C@@H]2O)cc(Cc2ccc(C#N)nc2)c1Cl [Example 104, 5-chloro-4-((6-cyanopyridin-3-yl)methyl)-N-((1S,2S)-2-hydroxycyclohexyl)-6-methylpyridine-2-carboxamide]
103 | COc1ccc(Cc2cc(C(=O)N[C@H]3COCC[C@@H]3O)nc(C)c2C)cc1 [Example 83, 1,5-anhydro-2,4-dideoxy-2-(((4-(4-methoxybenzyl)-5,6-dimethylpyridin-2-yl)carbonyl)amino)-L-threo-pentitol]
98 | Cc1cnc(C(=O)N[C@H]2CCC[C@@H]2O)cc1Cc1ccc(-c2ccn(C)n2)cc1F [Example 11, 4-(2-fluoro-4-(1-methyl-1H-pyrazol-3-yl)benzyl)-N-((1S,2S)-2-hydroxycyclopentyl)-5-methylpyridine-2-carboxamide]
92 | CCc1cnc(C(=O)N[C@H]2COCC[C@@H]2O)cc1Cc1ccc(-n2cccn2)cc1 [Example 44, 1,5-anhydro-2,4-dideoxy-2-(((5-ethyl-4-(4-(1H-pyrazol-1-yl)benzyl)pyridin-2-yl)carbonyl)amino)-L-threo-pentitol]
